Measured values reported in article doi:10.1101/2025.11.03.686257v1 (bioRxiv, 2025).

Columns and labels:
HepaRG-SP cells = assay: Peptide-Dylight488 streptavidin cell binding assay by flow cytometry; type: cell-based, human; conditions: P11^Chol-Dylight488 streptavidin complexes
[1] = test system: bipotent progenitor HepaRG cells 3 days after plating; assay: as above; type: cell-based, human; conditions: P11^Chol-Dylight488 streptavidin complexes
[2] = test system: normal human hepatocytes in primary culture; assay: as above; type: cell-based; conditions: peptide-Dylight488 streptavidin complexes
[3] = test system: hepatic stellar-like LX2 cells; assay: as above; type: cell-based, human; conditions: peptide-Dylight488 streptavidin complexes
Huh7 HCC cell line = assay: as above; type: cell-based, human; conditions: peptide-Dylight488 streptavidin complexes
Hepa1-6 HCC cell line = assay: as above; type: cell-based, murine; conditions: peptide-Dylight488 streptavidin complexes
RLEC-like S3 cells = assay: as above; type: cell-based, rat; conditions: peptide-Dylight488 streptavidin complexes, established line
[4] = Solubility in aqueous solution; type: physicochemical; conditions: stock solutions prepared in PBS at 1mM
Providencia stuartii = assay: Antibiotic resistance characterization of clinical isolate; type: cell-based; conditions: University Hospital Pontchaillou
HepG2 cells = assay: Peptide-Dylight488 streptavidin cell binding assay by flow cytometry; type: cell-based, human; conditions: peptide-Dylight488 streptavidin complexes
HEK293T cells = assay: as above; type: cell-based, human; conditions: peptide-Dylight488 streptavidin complexes

Compound | binding to cells [2] | binding to cells [3] | binding to cells (Huh7 HCC cell line) | binding to cells (Hepa1-6 HCC cell line) | binding to cells (RLEC-like S3 cells) | antibiotic resistance/sensitivity of the strain (Providencia stuartii) | also measured
TFLNSVPTYSYWGGGS [P11^Chol] | no binding | no binding | no binding | no binding | bound |  | percentage of positive cells (HepaRG-SP cells): less than 1%; increase in fluorescence intensity, HepaRG D3 versus HepaRG-SP cells [1]: 4 fold; percentage of positive cells ([1]; HepaRG D3): ~18%; solubility in aqueous solution [4]: high solubility
AFLNSNGLPTYSPKIS [Hel-Pyl] | no binding | no binding | no binding | no binding | bound |  | 
GTLNNIPTY-YWGKGY [Provid-Stu] | no binding | no binding | no binding | no binding | bound |  | 
CC1(C)S[C@@H]2[C@H](NC(=O)[C@H](N)c3ccccc3)C(=O)N2[C@H]1C(=O)O [ampicillin] |  |  |  |  |  | resistant | 
O=C(N[C@H](CO)[C@H](O)c1ccc([N+](=O)[O-])cc1)C(Cl)Cl [chloramphenicol] |  |  |  |  |  | sensitive | 
amoxicillin + clavulanic acid |  |  |  |  |  | resistant | 
gentamycin |  |  |  |  |  | sensitive | 
CC[C@H]1OC(=O)[C@H](C)[C@@H](O[C@H]2C[C@@](C)(OC)[C@@H](O)[C@H](C)O2)[C@H](C)[C@@H](O[C@@H]2O[C@H](C)C[C@H](N(C)C)[C@H]2O)[C@](C)(O)C[C@@H](C)C(=O)[C@H](C)[C@@H](O)[C@]1(C)O [erythromycin] |  |  |  |  |  | resistant | 
NC[C@H]1O[C@H](O[C@H]2[C@H](O)[C@@H](O[C@H]3O[C@H](CO)[C@@H](O)[C@H](N)[C@H]3O)[C@H](N)C[C@@H]2N)[C@H](O)[C@@H](O)[C@@H]1O [kanamycin] |  |  |  |  |  | sensitive | 
EYLNSILSYSPSYYWI [E-select] |  |  |  |  |  |  | binding to cells (HepG2 cells): significant binding; binding to cells (HEK293T cells): significant binding
